Experimental data: patent US7868204B2, “Inhibitors of histone deacetylase” (MethylGene Inc., priority 2001, dated 2011)
Like-named read-outs stand apart in the source and are kept apart here.

What was measured:
[1] = target: T1, cloned recombinant human HDAC-1 (Homo sapiens, UniProt Q13547); assay: Human HDAC-1 enzyme inhibition, Assay 1 ([3H]-acetylated histone substrate, scintillation counting); format: biochemical
T1 construct: made in house; host or cells: Baculovirus insect cell expression system
Procedure: Assay 1. HDAC inhibitors were screened against a cloned recombinant human HDAC-1 enzyme expressed and purified from a Baculovirus insect cell expression system. […] The mixture was extracted with ethyl acetate and the released [^3H]-acetic acid was quantified by scintillation counting. For inhibition studies, the enzyme was preincubated with compounds at 4° C. for 30 minutes prior to initiation of the enzymatic assay. IC50 values for HDAC enzyme inhibitors were determined by performing dose response curves with individual compounds and determining the concentration of inhibitor producing fifty percent of the maximal inhibition.

HCT116 cells = assay: MTT assay; format: cell-based; details: Homo sapiens, HCT116 cells, 72 hours
Procedure: HCT116 cells (2000/well) were plated into 96-well tissue culture plates one day before compound treatment. Compounds at various concentrations were added to the cells. The cells were incubated for 72 hours at 37° C. in 5% CO2 incubator. MTT (3-[4,5-dimethylthiazol-2-yl]-2,5 diphenyl tetrazolium bromide, Sigma) was added at a final concentration of 0.5 mg/ml and incubated with the cells for 4 hours before one volume of solubilization buffer (50% N,N-dimethylformamide, 20% SDS, pH 4.7) was added onto the cultured cells. […] OD values were converted to cell numbers according to a standard growth curve of the relevant cell line.

[2] = Table 5F, read-out: Human HDAC-1 IC50
[3] = Table 5d, read-out: HDAC-1 IC50
[4] = Table 5b, read-out: Human HDAC-1 IC50
[5] = Table 5c, read-out: Human HDAC-1 IC50

T1 sequence (Q13547 whole entry): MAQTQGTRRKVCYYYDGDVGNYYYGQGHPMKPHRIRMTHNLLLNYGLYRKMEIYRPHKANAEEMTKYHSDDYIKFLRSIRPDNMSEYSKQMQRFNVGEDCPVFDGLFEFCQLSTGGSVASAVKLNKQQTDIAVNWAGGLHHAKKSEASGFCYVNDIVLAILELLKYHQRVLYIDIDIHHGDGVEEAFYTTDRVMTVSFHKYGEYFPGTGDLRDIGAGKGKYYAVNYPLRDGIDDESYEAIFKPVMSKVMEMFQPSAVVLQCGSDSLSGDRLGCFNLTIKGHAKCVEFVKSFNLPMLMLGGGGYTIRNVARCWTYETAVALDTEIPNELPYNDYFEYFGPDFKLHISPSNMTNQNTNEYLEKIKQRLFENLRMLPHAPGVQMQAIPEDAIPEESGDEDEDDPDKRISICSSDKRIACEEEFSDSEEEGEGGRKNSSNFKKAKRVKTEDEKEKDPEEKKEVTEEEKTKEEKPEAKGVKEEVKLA

In the case of Nc1ccccc1NC(=O)c1ccc(NCCn2cnc3ccccc3c2=O)nc1 [Cpd 446, N-(2-Amino-phenyl)-6-[2-(4-oxo-4H-quinazolin-3-yl)-ethylamino]-nicotinamide], the IC50 [1, 2] is reported as 21 µM and the IC50 (HCT116 cells; HCT-116, 72 h, Table 5F) is reported as 7 µM.

Nc1ccccc1NC(=O)c1ccc(N2CCOCC2)cc1 [Cpd 238] gave an IC50 [1, 2] of 3 µM and an IC50 (HCT116 cells; HCT-116, 72 h, Table 5F) of 6 µM.

For COc1ccc(NCc2ccc(/C=C/C(=O)Nc3ccccc3N)cc2)c(OC)c1OC [Cpd 562, N-(2-Amino-phenyl)-3-[4-[(2,3,4-trimethoxy-phenylamino)-methyl]-phenyl}-acrylamide], the IC50 [1, 3] was 5 µM and the IC50 (HCT116 cells; HCT-116, Table 5d) was 5 µM.

COc1ccc(CCNc2nc(NCc3ccc(C(=O)Nc4ccccc4N)cc3)nc(NC3CC3)n2)cc1OC [Cpd 478] showed an IC50 [1, 4] of 3 µM and an IC50 (HCT116 cells; HCT-116, 72 h, Table 5b) of 0.7 µM.

COc1cc(/C=C/c2ccc(/C=C/C(=O)Nc3ccccc3N)cc2)cc(OC)c1OC [Cpd 536, N-(2-Amino-phenyl)-3-{4-[2-(3,4,5-trimethoxy-phenyl)-vinyl]-phenyl}-acrylamide] was tested, and the IC50 [1, 3] was 18 µM and the IC50 (HCT116 cells; HCT-116, Table 5d) was 9 µM.

Compound CC(=O)NCc1cccc(NCc2ccc(/C=C/C(=O)Nc3ccccc3N)cc2)c1 [Cpd 533, 3-(4-{[3-(Acetylamino-methyl)-phenylamino]-methyl}-phenyl)-N-(2-amino-phenyl)-acrylamide] has an IC50 [1, 3] of 5 µM and an IC50 (HCT116 cells; HCT-116, Table 5d) of 11 µM.

Nc1nc(CCc2ccc(C(=O)Nc3ccccc3N)cc2)nc(N2CCCCC2)n1 [Cpd 224] gave an IC50 [1, 4] of 5 µM and an IC50 (HCT116 cells; HCT-116, 72 h, Table 5b) of 3 µM.

Work on Nc1ccccc1NC(=O)/C=C/c1ccc(CNc2cccc(OCCO)c2)cc1 [Cpd 549, N-(2-Amino-phenyl)-3-(4-{[3-(2-hydroxy-ethoxy)-phenylamino]-methyl}-phenyl)-acrylamide] yielded an IC50 [1, 3] of 4 µM and an IC50 (HCT116 cells; HCT-116, Table 5d) of 19 µM.

In the case of CC(C)(O)C#Cc1ccc(C(=O)Nc2ccccc2N)cc1 [Cpd 195], the IC50 [1, 2] is reported as 7 µM and the IC50 (HCT116 cells; HCT-116, 72 h, Table 5F) is reported as 9 µM.

With COc1cc(Cl)nc(NCc2ccc(/C=C/C(=O)Nc3ccccc3N)cc2)n1 [Cpd 493, N-(2-Amino-phenyl)-3-{4-[(4-chloro-6-methoxy-pyrimidin-2-ylamino)-methyl]-phenyl]-acrylamide] the IC50 [1, 3] was 4 µM and the IC50 (HCT116 cells; HCT-116, Table 5d) was 5 µM.

With Nc1ccccc1NC(=O)c1ccc(CN2CCOCC2)cc1 [Cpd 328] the IC50 [1, 2] was 17 µM and the IC50 (HCT116 cells; HCT-116, 72 h, Table 5F) was 10 µM.

For Nc1nc(/C=C/c2ccc(C(=O)Nc3ccccc3N)cc2)nc(N2CCCCC2)n1 [Cpd 223], the IC50 [1, 4] was 11 µM and the IC50 (HCT116 cells; HCT-116, 72 h, Table 5b) was 2 µM.

COc1cc(NCc2ccc(/C=C/C(=O)Nc3ccccc3N)cc2[N+](=O)[O-])cc(OC)c1OC [Cpd 567] showed an IC50 [1, 3] of 13 µM and an IC50 (HCT116 cells; HCT-116, Table 5d) of 3 µM.

Work on COc1ccc(C2=NCC(c3ccc(C(=O)Nc4ccccc4N)cc3)O2)cc1OC (stereo not shown) [compound 305, N-(2-Amino-phenyl)-4-[2-(3,4-dimethoxy-phenyl)-4,5-dihydro-oxazol-5-yl]-benzamide] yielded an IC50 [1, 2] of 4 µM and an IC50 (HCT116 cells; HCT-116, 72 h, Table 5F) of 2 µM.

With CN1CCN(c2ccc(NCc3ccc(/C=C/C(=O)Nc4ccccc4N)cc3)cc2F)CC1 [Cpd 527, N-(2-Amino-phenyl)-3-(4-{[3-fluoro-4-(4-methyl-piperazin-1-yl)-phenylamino]-methyl}-phenyl)-acrylamide] the IC50 [1, 3] was 4 µM and the IC50 (HCT116 cells; HCT-116, Table 5d) was 3 µM.

In the case of Nc1ccccc1NC(=O)c1ccc(-c2noc(CN3CCCCC3)n2)cc1 [Cpd 354, N-(2-Amino-phenyl)-4-(5-piperidin-1-ylmethyl-[1,2,4]oxadiazol-3-yl)-benzamide], the IC50 [1, 2] is reported as 15 µM and the IC50 (HCT116 cells; HCT-116, 72 h, Table 5F) is reported as 5 µM.

Nc1ccccc1NC(=O)/C=C/c1ccc(NC/C=C/c2ccccc2)cc1 [Cpd 71] showed an IC50 [1, 5] of 10 µM and an IC50 (HCT116 cells; HCT-116, 72 h, Table 5c) of 44 µM.

Nc1ccccc1NC(=O)c1ccc(Cn2cnc3cc(F)c(F)cc3c2=O)cc1 [Cpd 339, N-(2-Amino-phenyl)-4-(6,7-difluoro-4-oxo-4H-quinazolin-3-ylmethyl)-benzamide] gave an IC50 [1, 2] of 4 µM and an IC50 (HCT116 cells; HCT-116, 72 h, Table 5F) of 3 µM.

Compound Nc1ccccc1NC(=O)/C=C/c1ccc(CNc2cc([N+](=O)[O-])cc([N+](=O)[O-])c2)cc1 [Cpd 495] has an IC50 [1, 3] of 4 µM and an IC50 (HCT116 cells; HCT-116, Table 5d) of 7 µM.

For Nc1ccccc1NC(=O)c1ccc(C#CC2(O)CCCCC2)nc1 [Cpd 463, N-(2-Amino-phenyl)-6-(1-hydroxy-cyclohexylethynyl)-nicotinamide], the IC50 [1, 2] was 12 µM and the IC50 (HCT116 cells; HCT-116, 72 h, Table 5F) was 6 µM.

Work on CSc1ccc(NCc2ccc(/C=C/C(=O)Nc3ccccc3N)cc2)cc1F [Cpd 565, N-(2-Amino-phenyl)-3-{4-[(3-fluoro4-methylsulfanyl-phenylamino)-methyl]-phenyl}-acrylamide] yielded an IC50 [1, 3] of 5 µM and an IC50 (HCT116 cells; HCT-116, Table 5d) of 17 µM.

COc1ccc(CNc2ncc(/C=C/C(=O)Nc3ccccc3N)cn2)cc1 [Cpd 118, N-(2-amino-phenyl)-3-[2(4-methoxy-benzylamino)-pyrimidin-5-yl]-acrylamide] was tested, and the IC50 [1, 5] was 11 µM and the IC50 (HCT116 cells; HCT-116, 72 h, Table 5c) was 8 µM.

For Nc1ccccc1NC(=O)c1ccc(CNc2nc(N3CCCCC3)nc(N3CCCCC3)n2)cc1 [Cpd 26, N-(2-Amino-phenyl)-4-[(4,6-di-piperidin-1-yl-[1,3,5]triazin-2-ylamino)-methyl]-benzamide], the IC50 ([1]; Table 5a, read-out: Human HDAC-1 IC50) was 0.5 µM and the IC50 (HCT116 cells; HCT-116, 72 h, Table 5a) was 2 µM.

For COc1cc(OC)c(OC)cc1CNc1ccc(/C=C/C(=O)Nc2ccccc2N)cc1 [Cpd 517], the IC50 [1, 3] was 6 µM and the IC50 (HCT116 cells; HCT-116, Table 5d) was 5 µM.

Nc1ccccc1NC(=O)/C=C/c1ccc(CNc2cccc3ccccc23)cc1 [Cpd 558, N-(2-Amino-phenyl)-3-[4-(naphthalen-1-ylaminomethyl)-phenyl]-acrylamide] was tested, and the IC50 [1, 3] was 7 µM and the IC50 (HCT116 cells; HCT-116, Table 5d) was 10 µM.

For Nc1ccccc1NC(=O)/C=C/c1ccc(NCc2cccnc2)cc1 [Cpd 111, N-(2-amino-phenyl)-3-{4-[(pyridin-3-ylmethyl)-amino]-phenyl}-acrylamide], the IC50 [1, 5] was 10 µM and the IC50 (HCT116 cells; HCT-116, 72 h, Table 5c) was 2 µM.

Nc1ccccc1NC(=O)/C=C/c1ccc(CNc2cccc(I)c2)cc1 [Cpd 548, N-(2-Amino-phenyl)-3-{4-[(3-iodo-phenylamino)-methyl]-phenyl}-acrylamide] showed an IC50 [1, 3] of 3 µM and an IC50 (HCT116 cells; HCT-116, Table 5d) of 9 µM.

For Nc1nc(NCc2ccc(C(=O)Nc3ccccc3N)cc2)c2nc[nH]c2n1 [Cpd 331, N-(2-Amino-phenyl)-4-[(2-amino-9H-purin-6-ylamino)-methyl]-benzamide], the IC50 [1, 2] was 4 µM and the IC50 (HCT116 cells; HCT-116, 72 h, Table 5F) was 10 µM.

In the case of Cc1nc(-c2ccc(C(=O)Nc3ccccc3N)cc2)no1 [Cpd 353, N-(2-Amino-phenyl)-4-(5-methyl-[1,2,4]oxadiazol-3-yl)-benzamide], the IC50 [1, 2] is reported as 3 µM and the IC50 (HCT116 cells; HCT-116, 72 h, Table 5F) is reported as 10 µM.

Nc1ccccc1NC(=O)/C=C/c1ccc(NCCCn2ccnc2)nc1 [Cpd 97, N-(2-aminophenyl)-3-[6-(3-imidazol-1-yl-propylamino)-pyridin-3-yl]-acrylamide] was tested, and the IC50 [1, 5] was 10 µM and the IC50 (HCT116 cells; HCT-116, 72 h, Table 5c) was 12 µM.

Nc1ccccc1NC(=O)/C=C/c1ccc(CNc2cccc(S(=O)(=O)NCCCN3CCOCC3)c2)cc1 [Cpd 539, N-(2-Amino-phenyl)-3-(4-{[3-(3-morpholin-4-yl-propylsulfamoyl)-phenylamino]-methyl}-phenyl)-acrylamide] showed an IC50 [1, 3] of 2 µM and an IC50 (HCT116 cells; HCT-116, Table 5d) of 10 µM.

With CSc1ccc(NCc2ccc(/C=C/C(=O)Nc3ccccc3N)cc2)cc1C(F)(F)F [Cpd 566, N-(2-Amino-phenyl)-3-{4-[(4-methylsulfanyl-3-trifluoromethyl-phenylamino)-methyl]-phenyl]-acrylamide] the IC50 [1, 3] was 3 µM and the IC50 (HCT116 cells; HCT-116, Table 5d) was 16 µM.

Work on Nc1ccccc1NC(=O)/C=C/c1ccc(CNc2cccc(Br)c2)cc1 [Cpd 546, N-(2-Amino-phenyl)-3-{4-[(3-bromo-phenylamino)-methyl]-phenyl}-acrylamide] yielded an IC50 [1, 3] of 3 µM and an IC50 (HCT116 cells; HCT-116, Table 5d) of 10 µM.

Work on COc1cc(Nc2ccc(/C=C/C(=O)Nc3ccccc3N)cc2)cc(OC)c1OC [Cpd 481] yielded an IC50 [1, 3] of 22 µM and an IC50 (HCT116 cells; HCT-116, Table 5d) of 10 µM.

With Nc1ccccc1NC(=O)/C=C/c1ccc(CNc2ccc(OC(F)(F)F)cc2)cc1 [Cpd 504, N-(2-Amino-phenyl)-3-{4-[(4-trifluoromethoxy-phenylamino)-methyl]-phenyl}-acrylamide] the IC50 [1, 3] was 5 µM and the IC50 (HCT116 cells; HCT-116, Table 5d) was over 25 µM.

C[Si](C)(C)C#Cc1ccc(C(=N)Nc2ccccc2N)cc1 [Cpd 198] was tested, and the IC50 [1, 2] was 24 µM and the IC50 (HCT116 cells; HCT-116, Table 5F) was 14 µM.

With CC(=O)c1cc2c(cc1NCc1ccc(/C=C/C(=O)Nc3ccccc3N)cc1)OCO2 [Cpd 501, 3-{4-[(6-Acetyl-benzo[1,3]dioxol-5-ylamino)-methyl]-phenyl}-N-(2-amino-phenyl)-acrylamide] the IC50 [1, 3] was 4 µM and the IC50 (HCT116 cells; HCT-116, Table 5d) was 10 µM.

In the case of COc1cc(/C=C/C(=O)Nc2ccccc2N)cc(OC)c1CNc1cc(OC)c(OC)c(OC)c1 [Cpd 560], the IC50 [1, 3] is reported as 21 µM and the IC50 (HCT116 cells; HCT-116, Table 5d) is reported as 6 µM.

With Nc1ccccc1NC(=O)c1ccc(Sc2ccc3ccccc3n2)nc1 [compound 319, N-(2-Amino-phenyl)-6-(quinolin-2-ylsulfanyl)-nicotinamide] the IC50 [1, 2] was 4 µM and the IC50 (HCT116 cells; HCT-116, 72 h, Table 5F) was 8 µM.

COc1ccc(-c2ccc(/C=C/C(=O)Nc3ccccc3N)cn2)cc1OC [Cpd 569] showed an IC50 [1, 3] of 18 µM and an IC50 (HCT116 cells; HCT-116, Table 5d) of 6 µM.

With COc1cc(NCc2ccc(/C=C/C(=O)Nc3cccc(N)c3N)cc2)cc(OC)c1OC [Cpd 564] the IC50 [1, 3] was over 25 µM and the IC50 (HCT116 cells; HCT-116, Table 5d) was over 25 µM.
